{
  "source": "paper PMC4028973",
  "about": "(Journal of the American Chemical Society, 2014)",
  "key": {"[1]": {"target": "T1, SbnE (Staphylococcus aureus, UniProt Q2G1M9)", "T1 sequence (Q2G1M9 1-578)": "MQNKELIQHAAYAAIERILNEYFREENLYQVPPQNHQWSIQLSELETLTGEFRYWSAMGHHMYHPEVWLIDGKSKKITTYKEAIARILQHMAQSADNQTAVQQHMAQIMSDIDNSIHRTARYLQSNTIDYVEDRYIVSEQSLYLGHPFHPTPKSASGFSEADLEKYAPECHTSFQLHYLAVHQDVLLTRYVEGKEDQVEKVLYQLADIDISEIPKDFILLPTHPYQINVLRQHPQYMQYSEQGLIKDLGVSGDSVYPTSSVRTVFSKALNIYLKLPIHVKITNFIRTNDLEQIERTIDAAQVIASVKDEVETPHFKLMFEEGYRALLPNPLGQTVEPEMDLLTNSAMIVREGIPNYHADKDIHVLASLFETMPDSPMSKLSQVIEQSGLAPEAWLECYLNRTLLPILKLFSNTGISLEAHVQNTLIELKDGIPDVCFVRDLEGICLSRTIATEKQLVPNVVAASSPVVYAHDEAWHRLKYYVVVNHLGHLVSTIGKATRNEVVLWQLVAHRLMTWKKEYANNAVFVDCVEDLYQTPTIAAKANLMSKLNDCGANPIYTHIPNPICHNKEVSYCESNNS", "type": "biochemical, S. aureus", "details": "read-out: IC50 against SbnE"}, "[2]": {"target": "T2, AsbA (Bacillus anthracis, UniProt A0A0F7RJ52)", "T2 sequence (A0A0F7RJ52 whole entry, looked up)": "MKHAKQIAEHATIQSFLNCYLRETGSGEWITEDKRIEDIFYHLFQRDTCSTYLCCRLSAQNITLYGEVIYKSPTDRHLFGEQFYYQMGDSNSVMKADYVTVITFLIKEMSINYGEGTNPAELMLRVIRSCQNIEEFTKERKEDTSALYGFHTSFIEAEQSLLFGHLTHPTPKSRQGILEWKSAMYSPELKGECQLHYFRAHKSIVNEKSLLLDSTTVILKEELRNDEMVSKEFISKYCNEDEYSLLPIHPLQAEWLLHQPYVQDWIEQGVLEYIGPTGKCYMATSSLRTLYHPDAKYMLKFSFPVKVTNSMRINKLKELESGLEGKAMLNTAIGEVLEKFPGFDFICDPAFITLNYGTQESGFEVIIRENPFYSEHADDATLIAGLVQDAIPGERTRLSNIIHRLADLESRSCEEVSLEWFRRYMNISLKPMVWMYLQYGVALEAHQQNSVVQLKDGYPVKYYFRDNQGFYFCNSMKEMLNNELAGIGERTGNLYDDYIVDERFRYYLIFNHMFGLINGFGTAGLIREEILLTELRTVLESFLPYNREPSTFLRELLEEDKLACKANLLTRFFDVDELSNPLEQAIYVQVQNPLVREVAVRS", "type": "biochemical, B. anthracis", "details": "read-out: IC50 against AsbA"}, "[3]": {"target": "AsbB (Bacillus anthracis, UniProt Q81RQ8)", "sequence (Q81RQ8 whole entry, looked up)": "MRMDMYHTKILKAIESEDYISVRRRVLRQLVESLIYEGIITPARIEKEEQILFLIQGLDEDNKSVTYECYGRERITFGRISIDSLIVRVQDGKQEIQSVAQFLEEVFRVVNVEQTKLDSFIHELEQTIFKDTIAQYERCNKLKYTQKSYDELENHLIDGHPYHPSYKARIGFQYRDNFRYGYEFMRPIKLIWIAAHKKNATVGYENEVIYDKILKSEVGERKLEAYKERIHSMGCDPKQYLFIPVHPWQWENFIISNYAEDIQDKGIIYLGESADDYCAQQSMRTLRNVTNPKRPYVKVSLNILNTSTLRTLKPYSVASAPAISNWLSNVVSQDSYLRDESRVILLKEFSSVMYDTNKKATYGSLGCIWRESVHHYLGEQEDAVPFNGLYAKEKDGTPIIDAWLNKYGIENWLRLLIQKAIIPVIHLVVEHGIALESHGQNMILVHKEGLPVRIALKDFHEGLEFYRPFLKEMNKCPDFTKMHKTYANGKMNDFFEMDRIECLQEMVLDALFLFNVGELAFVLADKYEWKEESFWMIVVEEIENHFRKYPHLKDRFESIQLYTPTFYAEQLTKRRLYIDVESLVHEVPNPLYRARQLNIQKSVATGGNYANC", "type": "biochemical, B. anthracis", "details": "for IC50: read-out: IC50 against AsbB"}, "[4]": {"test_system": "S. aureus (Newman)", "type": "cell-based"}, "[5]": {"target": "T1, SbnE", "type": "biochemical, S. aureus"}, "[6]": {"target": "T2, AsbA", "type": "biochemical, B. anthracis"}, "[7]": {"test_system": "MRSA (USA 300)", "type": "cell-based, S. aureus"}, "[8]": {"test_system": "B. anthracis (Sterne 34F2)", "type": "cell-based"}, "[9]": {"test_system": "S. typhimurium", "type": "cell-based, Salmonella typhimurium"}, "[10]": {"test_system": "E. coli (MC 1061)", "type": "cell-based"}, "[11]": {"test_system": "S. flexneri (BS103)", "type": "cell-based, Shigella flexneri"}},
  "note": "Read-outs that look alike come from different tables or passages of the source.",
  "data": [
    {"smiles": "CC(=O)[C@H](C)C[C@@H](C)C[C@H](C)CC[C@@H](O)C[C@@H](O)[C@@H](CC(C)C)[C@@H](O)c1cc(O)cc(O)c1", "note": "[BmcB, baulamycin B]", "values": [
      {"measurement": "IC50", "setting": "[1]", "result": 19, "unit": "µM"},
      {"measurement": "IC50", "setting": "[2]", "result": 200, "unit": "µM"},
      {"measurement": "inhibition against AsbB (in words)", "setting": "[3]", "result": "negligible"},
      {"measurement": "IC50", "setting": "[3]", "result": "> 1000", "unit": "µM"},
      {"measurement": "potency against S. aureus (Newman) cultures compared with BmcA (in words)", "setting": "[4]", "result": "significantly less potent"}
    ]},
    {"smiles": "CCC(=O)[C@H](C)C[C@@H](C)C[C@H](C)CC[C@@H](O)C[C@@H](O)[C@@H](CC(C)C)[C@@H](O)c1cc(O)cc(O)c1", "note": "[BmcA, baulamycin A]", "values": [
      {"measurement": "IC50", "setting": "[1]", "result": 4.8, "unit": "µM"},
      {"measurement": "IC50", "setting": "[2]", "result": 180, "unit": "µM"},
      {"measurement": "inhibition against AsbB (in words)", "setting": "[3]", "result": "negligible"},
      {"measurement": "IC50", "setting": "[3]", "result": "> 1000", "unit": "µM"},
      {"measurement": "mode of inhibition of SbnE", "setting": "[5]", "result": "reversible, competitive"},
      {"measurement": "Ki", "setting": "[5]; read-out: Ki, SbnE, with respect to ATP", "result": 680, "unit": "µM"},
      {"measurement": "Ki", "setting": "[5]; read-out: Ki, SbnE, with respect to citric acid", "result": 50, "unit": "µM"},
      {"measurement": "Ki", "setting": "[5]; read-out: Ki, SbnE, with respect to polyamine substrate", "result": 210, "unit": "µM"},
      {"measurement": "mode of inhibition of AsbA", "setting": "[6]", "result": "reversible, competitive"},
      {"measurement": "Ki", "setting": "[6]; read-out: Ki, AsbA, with respect to ATP", "result": 230, "unit": "µM"},
      {"measurement": "Ki", "setting": "[6]; read-out: Ki, AsbA, with respect to citric acid", "result": 110, "unit": "µM"},
      {"measurement": "Ki", "setting": "[6]; read-out: Ki, AsbA, with respect to polyamine substrate", "result": 170, "unit": "µM"},
      {"measurement": "IC50", "setting": "[4]; read-out: IDM IC50, S. aureus (Newman)", "result": 69, "unit": "µM"},
      {"measurement": "IC50", "setting": "[4]; read-out: IRM IC50, S. aureus (Newman)", "result": 86, "unit": "µM"},
      {"measurement": "IC50", "setting": "[7]; read-out: IDM IC50, MRSA (USA 300)", "result": 130, "unit": "µM"},
      {"measurement": "IC50", "setting": "[7]; read-out: IRM IC50, MRSA (USA 300)", "result": 130, "unit": "µM"},
      {"measurement": "IC50", "setting": "[8]; read-out: IDM IC50, B. anthracis (Sterne 34F2)", "result": 110, "unit": "µM"},
      {"measurement": "IC50", "setting": "[8]; read-out: IRM IC50, B. anthracis (Sterne 34F2)", "result": 120, "unit": "µM"},
      {"measurement": "IC50", "setting": "[9]; read-out: IC50, S. typhimurium, iron-depleted conditions", "result": "> 1000", "unit": "µM"},
      {"measurement": "IC50", "setting": "[9]; read-out: IC50, S. typhimurium, iron-rich conditions", "result": "> 1000", "unit": "µM"},
      {"measurement": "IC50", "setting": "[9]; read-out: IDM IC50, S. typhimurium", "result": "> 1000", "unit": "µM"},
      {"measurement": "IC50", "setting": "[9]; read-out: IRM IC50, S. typhimurium", "result": "> 1000", "unit": "µM"},
      {"measurement": "IC50", "setting": "[10]; read-out: IDM IC50, E. coli (MC 1061)", "result": 4.2, "unit": "µM"},
      {"measurement": "IC50", "setting": "[10]; read-out: IRM IC50, E. coli (MC 1061)", "result": 150, "unit": "µM"},
      {"measurement": "IC50", "setting": "[11]; read-out: IDM IC50, S. flexneri (BS103)", "result": 20, "unit": "µM"},
      {"measurement": "IC50", "setting": "[11]; read-out: IRM IC50, S. flexneri (BS103)", "result": 46, "unit": "µM"}
    ]}
  ]
}
